From ChEMBL document CHEMBL3301361, “Experimental in vitro DMPK and physicochemical data on a set of publicly disclosed compounds”
Values after ≈ are worked out from the molar mass of the structure shown.

Experiment: physchem
Details: pH 7.4 buffer

| SMILES | solubility thermodynamic |
| --- | --- |
| O=C(O)c1cc2c(F)cccc2n1Cc1ccc(Cl)c(Cl)c1 | 525 µM (≈ 177 µg/mL) |
| Nc1ccc2c(c1)cc(C(=O)O)n2Cc1ccc(Cl)c(Cl)c1 | 347 µM (≈ 116 µg/mL) |
| Nc1nnc(-c2ccccc2F)s1 | 316 µM (≈ 61.7 µg/mL) |
| O=C(Nc1ccccc1)c1cc(-n2cnnc2)ccc1Cl | 407 µM (≈ 122 µg/mL) |
| COc1ccc(Cc2nnc(N)s2)cc1 | 363 µM (≈ 80.3 µg/mL) |
| CNC(=O)[C@@H](NC(=O)[C@H](CC(C)C)[C@H](OCc1cc2ccccc2n(C)c1=O)C(=O)NO)C(C)(C)C | 269 µM (≈ 135 µg/mL) |
| CC(C)Cn1c2ccccc2c2cc(C(=O)O)ccc21 | 219 µM (≈ 58.5 µg/mL) |
| Cc1ccc(-c2cn3cccnc3n2)cc1 | 251 µM (≈ 52.6 µg/mL) |
| CCC(C)(C)NC(=O)Cc1ccc(C)cc1 | 240 µM (≈ 52.6 µg/mL) |
| CC(C)(C)C(O)C(Cc1ccccc1Cl)n1cncn1 (centres undefined) | 398 µM (≈ 117 µg/mL) |
| CNC(=O)N1c2ccccc2C=Cc2ccccc21 | 380 µM (≈ 95.2 µg/mL) |
| Cn1[nH]c(CSc2ccc(Cl)cc2)cc1=O | 468 µM (≈ 119 µg/mL) |
| Cc1ccnc(NC(=O)CSc2ccccn2)c1 | 436 µM (≈ 113 µg/mL) |
| O=[N+]([O-])c1ccc(CCl)cc1 | 501 µM (≈ 86 µg/mL) |
| Oc1ncnc2c1nnn2Cc1ccccc1 | 209 µM (≈ 47.5 µg/mL) |
| COc1ccc(CNC(=O)c2ccc(Oc3ccc(C#C[C@]4(O)CN5CCC4CC5)cc3)cc2)nc1 | 347 µM (≈ 168 µg/mL) |
| CC(c1ccccc1)n1cnc2ccccc2c1=O (centres undefined) | 468 µM (≈ 117 µg/mL) |
| CNc1nc2ccc(NC(C)=O)cc2s1 | 347 µM (≈ 76.7 µg/mL) |

| SMILES | solubility thermodynamic |
| --- | --- |
| CC(C)(C)c1csc(N2CCN(C(=O)[C@@H]3CCCC[C@H]3C(=O)NC3(C#N)CC3)CC2)n1 | 282 µM (≈ 125 µg/mL) |
| Cc1csc(NC(=O)c2ccccc2)n1 | 331 µM (≈ 72.3 µg/mL) |
| O=C(Cc1ccccc1)Nc1ccccc1O | 246 µM (≈ 55.8 µg/mL) |
| Cc1cccc2c3c([nH]c12)CCN(C(=O)[C@@H]1CCCC[C@H]1C(=O)NC1(C#N)CC1)C3 | 513 µM (≈ 207 µg/mL) |
| N#CC1(NC(=O)[C@@H]2CCCC[C@H]2C(=O)N2CCc3[nH]c4c(F)cccc4c3C2)CC1 | 479 µM (≈ 195 µg/mL) |
| N#CC1(NC(=O)[C@@H]2CCCC[C@H]2C(=O)N2CCc3[nH]c4cc(F)ccc4c3C2)CC1 | 537 µM (≈ 219 µg/mL) |
| COc1ccc(N2CCN(C(=O)[C@@H]3CCCC[C@H]3C(=O)NCC#N)CC2)cc1 | 389 µM (≈ 150 µg/mL) |
| COc1cc(N2CCN(C(=O)[C@@H]3CCCC[C@H]3C(=O)NC3(C#N)CC3)[C@H](C)C2)ccc1C1CC1 | 204 µM (≈ 94.9 µg/mL) |
| CC(C)c1c(C(=O)NC2C3CC4CC(C3)CC2C4)cnn1-c1ccc(C(=O)O)cc1 (centres undefined) | 224 µM (≈ 91.2 µg/mL) |
| Cc1ccc2nc(C)c(-c3ccnc(N)n3)n2c1 | 457 µM (≈ 109 µg/mL) |
| Fc1ccc(CN2CCN(C3=Nn4c(nnc4C(F)(F)F)CC3)CC2)cc1 | 525 µM (≈ 201 µg/mL) |
| O=c1c2ccccc2[nH]n1CCc1ccccc1 | 550 µM (≈ 131 µg/mL) |
| CNC(=O)[C@@H](NC(=O)[C@H](CC(C)C)[C@H](OCc1cc2c(=O)[nH]c(C)nc2cc1Br)C(=O)NO)C(C)(C)C | 457 µM (≈ 266 µg/mL) |
| O=C(O)c1cc2cc(F)ccc2n1Cc1ccc(Cl)c(Cl)c1 | 209 µM (≈ 70.6 µg/mL) |
| Nc1nccc(/C=C/c2c(Cl)nc3sccn23)n1 | 324 µM (≈ 89.9 µg/mL) |
| CCCNc1nc2ccccc2c(=O)[nH]1 | 537 µM (≈ 109 µg/mL) |
| CCSc1nc2c(N)ncnc2[nH]1 | 436 µM (≈ 85.2 µg/mL) |
| COc1ccc(Br)c(C=O)c1O | 468 µM (≈ 108 µg/mL) |

More lines, now with the values ahead:

| solubility thermodynamic | SMILES |
| --- | --- |
| 246 µM (≈ 75.7 µg/mL) | Cc1ccccc1C(=O)NC1CCN(Cc2ccccc2)CC1 |
| 457 µM (≈ 134 µg/mL) | CNC(=O)Cc1ccc2c(=O)cc(-c3cccnc3)[nH]c2c1 |
| 427 µM (≈ 121 µg/mL) | O=C(c1ccccc1)C1CCN(C(=O)c2ccco2)CC1 |
| 363 µM (≈ 171 µg/mL) | N#Cc1ccccc1COc1cc(OCCCN2CCCC2)ccc1C(=O)Nc1cccc(O)c1 |
| 513 µM (≈ 230 µg/mL) | O=C(Nc1cccc(O)c1)c1ccc(OCCCN2CCCC2)cc1OCc1ccccn1 |
| 209 µM (≈ 90.1 µg/mL) | O=C(Nc1cccnc1)c1ccc(OCCCN2CCCC2)cc1OCc1ccccc1 |
| 398 µM (≈ 172 µg/mL) | O=C(Nc1ccccc1)c1ccc(OCCCN2CCCC2)cc1OCc1cccnc1 |
| 490 µM (≈ 330 µg/mL) | CCN(C(=O)Cc1ccc(S(C)(=O)=O)cc1)C1CCN(CC[C@@H](c2ccccc2)N2CCN(S(=O)(=O)CC(F)(F)F)CC2)CC1 |
| 457 µM (≈ 282 µg/mL) | CCN(C(=O)Cc1ccc(S(C)(=O)=O)cc1)C1CCN(CCC(c2ccccc2)C2CCN(S(=O)(=O)CC)CC2)CC1 (centres undefined) |
| 347 µM (≈ 174 µg/mL) | COc1ccc(Cl)c(Nc2ncnc3cc(OCCCN4CCN(C)CC4)cc(OC(C)C)c23)n1 |
| 263 µM (≈ 128 µg/mL) | CO[C@H]1CN(Cc2ccc(C(F)(F)F)cc2)CC[C@H]1N(C)C(=O)Cc1ccc(-n2cnnn2)cc1 |
| 295 µM (≈ 160 µg/mL) | O=C(N[C@@H](Cc1ccc(OCCc2cccc(NC3CCCC3)n2)cc1)C(=O)O)c1c(Cl)cccc1Cl |
| 257 µM (≈ 111 µg/mL) | O=C(O)Cc1cccc(-c2ccc(NC(=O)c3nnc(Nc4ccccc4F)o3)cc2)c1 |
| 263 µM (≈ 137 µg/mL) | COc1ccccc1C[C@@H](C(=O)O)N1CCC(CN2CCC(Oc3ccc(Cl)c(Cl)c3)CC2)CC1 |
| 204 µM (≈ 103 µg/mL) | Cc1cc(OC2CCN(CC3CCN([C@@](C)(Cc4ccc(F)cc4)C(=O)O)CC3)CC2)ccc1Cl |
| 417 µM (≈ 212 µg/mL) | O=C(O)[C@H](Cc1cccc(F)c1)N1CCC(CN2CCC(Oc3ccc(Cl)c(Cl)c3)CC2)CC1 |
| 302 µM (≈ 131 µg/mL) | CCOc1cccc2c3c([nH]c12)CCN(C(=O)[C@@H]1CCCC[C@H]1C(=O)NC1(C#N)CC1)C3 |

| solubility thermodynamic | SMILES |
| --- | --- |
| 457 µM (≈ 181 µg/mL) | C[C@H](C#N)NC(=O)[C@@H]1CCCC[C@H]1C(=O)N1CCc2[nH]c3ccc(F)cc3c2C1 |
| 275 µM (≈ 119 µg/mL) | CS(=O)(=O)c1ccc(N2CCN(C(=O)[C@@H]3CCCC[C@H]3C(=O)NCC#N)CC2)cc1 |
| 240 µM (≈ 117 µg/mL) | COc1cc2c(Nc3ccc(Br)cc3F)ncnc2cc1OC/C=C/CN1CCCC1 |
| 214 µM (≈ 124 µg/mL) | COc1cc2c(Nc3cc(CC(=O)Nc4cc(F)cc(F)c4)[nH]n3)ncnc2cc1OCCCN1CCC(CO)CC1 |
| 209 µM (≈ 45.8 µg/mL) | COc1cc2cc(O)nc(C)c2cc1OC |
| 240 µM (≈ 147 µg/mL) | COc1cc2ncnc(Nc3cc(NC(=O)c4ccnc(N5CCOCC5)c4)ccc3C)c2cc1OCCN(C(C)C)C(C)C |
| 302 µM (≈ 186 µg/mL) | COc1cc2c(Nc3ncc(CNS(=O)(=O)c4cccc(F)c4)s3)ncnc2cc1OCCCN1CCC(CO)CC1 |
| 282 µM (≈ 125 µg/mL) | CNC(=O)[C@H]1CCCN1Cc1cc2c(Nc3cccc(Cl)c3F)ncnc2cc1OC |
| 219 µM (≈ 111 µg/mL) | COc1cc2c(Nc3cc(CC(=O)Nc4cccc(F)c4)[nH]n3)ncnc2cc1OCCCNCCO |
| 389 µM (≈ 240 µg/mL) | Cc1cc(C)c(C(=O)N[C@@H](CNC(=O)CO[C@@H]2C[C@@H](CNc3ccccn3)N(C(=O)OCc3ccccc3)C2)C(=O)O)c(C)c1 |
| 214 µM (≈ 147 µg/mL) | CC(=O)N1CCN(CC(O)CN2CCN(CCc3c(-c4cc(C)cc(C)c4)[nH]c4sc(C(C)(C)C(=O)N5C6CCC5CC6)cc34)CC2)CC1 (centres undefined) |
| 427 µM (≈ 276 µg/mL) | Cc1cc(C)cc(-c2[nH]c3sc(C(C)(C)C(=O)N4C5CCC4CC5)cc3c2CCN2CCN(CC(O)CN3CCNCC3)CC2)c1 (centres undefined) |
| 219 µM (≈ 91.1 µg/mL) | COCCNS(=O)(=O)c1ccc(Nc2nccc(-c3c(C)nc(C)n3C)n2)cc1 |
| 363 µM (≈ 156 µg/mL) | COCCNS(=O)(=O)c1ccc(Nc2nccc(-c3cnc(C)n3C(C)C)n2)cc1 |
| 295 µM (≈ 124 µg/mL) | O=C(Nc1nccs1)[C@H](CC1CCOCC1)c1ccc(S(=O)(=O)C2CC2)cc1 |
| 309 µM (≈ 144 µg/mL) | CN(C)CCCN(C)S(=O)(=O)c1ccc(Nc2nccc(-c3cnc4ccccn34)n2)cc1 |
